Test: Clinical trial of oral testosterone undecanoate TRT in hypogonadal males, 24 hour PK profiles of serum testosterone with dose titration at weeks 3 and 7
Format: in vivo, human
Method: Specifically, 24 hour pharmacokinetic profiles for serum testosterone were determined for hypogonadal subjects receiving 225 mg TU twice daily with a meal after 3 weeks of treatment. The titration or dose adjustment was made based on the serum testosterone Cavg0-24 value calculated from the 24 hour pharmacokinetic profile (or the Cmax value). Another titration or dose adjustment was made similarly at 7 weeks. The titration or adjustment criteria used during the study is shown in the first column of Table A with the titration decision (dose adjustment) is shown in column 3.
A clinical trial was performed as set forth below in regards to the TRT disclosed herein.
Diagnosis of primary or secondary hypogonadism Male, 18 to 80 years of age, hypogonadism onset prior to age 65 Serum T<300 ng/dL, based on 2 consecutive samples, obtained on two separate days (6 to 10 AM) either naïve or following appropriate washout.
IPSS≥19 points PSA>2 ng/mL
Hemoglobin <11.5 or >16.5 g/dL; Hematocrit <35 or >54% History of myocardial infarction; prostate or breast cancer; uncontrolled, untreated obstructive sleep apnea; gastric surgery, HIV, Hepatitis, seizures or convulsions Subjects with a partner who is pregnant or planning to become pregnant during the study A total of 314 subjects were enrolled and randomized into the TRT arm or active control arm. The clinical trial design is outlined in FIG. 1. Starting dose: 225 mg testosterone undecanoate (TU) (equivalent to 142 mg testosterone) twice daily, 12 hours apart, with standard meals Two dose titration periods based on full 24 hour PK profile at Week 3 and 7
The dose range was 150 mg to 300 mg BID (total daily dose of 300 mg to 600 mg TU).
Efficacy Population (N=153): Subjects randomized into the study with at least one PK profile and no significant protocol deviations (includes imputed missing data/LOCF)
Safety Set (N=210): Subjects randomized into the study and took at least one dose of the drug Imputed missing data by Last Observation Carried Forward (LOCF), or considered treatment failures if no PK data available Full Analysis Set (N=193): Subjects randomized into the study with at least one PK profile (includes imputed missing data/LOCF) Per Protocol Set (N=132): Subjects who completed Week 13 without significant protocol deviations Primary endpoint target ≥75% subjects should achieve Cavg within normal range (300 ng/dL to 1140 ng/dL) and >65% lower bound 95% CI

[1] = serum total T, Efficacy Population

CCCCCCCCCCC(=O)O[C@H]1CC[C@H]2[C@@H]3CCC4=CC(=O)CC[C@]4(C)[C@H]3CC[C@]12C [testosterone undecanoate]
95% CI lower bound of % subjects with Cavg within normal range (Efficacy Population): 81.9%
% of subjects with Cavg < 300 ng/dL (Efficacy Population): 11.2%
% of subjects with Cavg > 1140 ng/dL (Efficacy Population): 0.7%
% subjects with Cavg within normal range (Efficacy Population, serum testosterone Cavg 300 ng/dL to 1140 ng/dL): 88.2%
95% CI lower bound of % subjects with Cavg within normal range (Full Analysis Set): 82.0%
% subjects with Cavg within normal range (Full Analysis Set, Cavg 300 ng/dL to 1140 ng/dL): 87.5%
95% CI lower bound of % subjects with Cavg within normal range (Per Protocol Set): 81.1%
% subjects with Cavg within normal range (Per Protocol Set, Cavg 300 ng/dL to 1140 ng/dL): 87.9%
95% CI lower bound of % subjects with Cavg within normal range (Safety Set): 73.8%
% subjects with Cavg within normal range (Safety Set, Cavg 300 ng/dL to 1140 ng/dL): 80.0%
AM - PM effect (comparison table): Not much different AM - PM
Subjects with Cavg < 300 ng/dL (comparison table): 11%
Variability (CV) of Cavg (comparison table): 37%
Variability (CV) of Cmax (comparison table): 45%
Mean Cavg (comparison table, serum testosterone): 447 ng/dL
Efficacy (% subjects with Cavg in normal range) (comparison table, starting daily dose 450 mg TU): analysis (88.2%)
24 hour pharmacokinetic profiles at weeks 3, 7 and 13 (FIG. 2) (patients without dose change during the trial): consistent inter-day pharmacokinetics
Cavg, Mean (CV) (serum testosterone, Efficacy Population): 447 (37%) ng/dL
Proportion of subjects with 1800 ≤ Cmax ≤ 2500 ng/dL [1]: 4.6%
Proportion of subjects with Cmax < 1500 ng/dL [1]: 82.9%
Proportion of subjects with Cmax > 2500 ng/dL [1]: 2.0%
% subjects with serum testosterone Cavg0-24 h within the normal range (subjects treated with TRT and titration scheme): about 87%

— US20210169899A1, “COMPOSITIONS AND THEIR USE IN ORAL DOSING REGIMENS” (Lipocine Inc., priority 2014, published 2021)
